Measured values: patent US8895585B2, “Nicotinamide derivative or salt thereof” (FUJIFILM Corporation, priority 2010, dated 2014)
pIC50: −log10 of the molar value.

Molecular target: T1, glutathione S-transferase (GST)-fused full-length human Syk protein (Homo sapiens, UniProt P43405)
T1 construct: (GST)-fused full-length human Syk protein; GST (glutathione S-transferase); purchased Carna Biosciences
Assay: Syk enzyme assay
Type: biochemical
Settings: Syk enzyme assay, Test Example 1; read-out: IC50 of Syk-inhibitory activity
Outline: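 IC50 values come from a time-resolved FRET readout (615 and 665 nm) of substrate phosphorylation, measured after an EDTA stop and 1 h antibody binding. The kinase reaction ran 40 min at room temperature with 27 μM ATP and 0.4 μM biotin-peptide, following a 15 min compound preincubation with baculovirus-made GST-full-length human Syk.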

SMILES	pIC50
Cn1c(C(=O)N2CCOCC2)cc2c(Nc3nc(NC4CCCC[C@@H]4N)c(F)cc3C(N)=O)ccnc21 (stereo partly drawn) [Example 029-010]	6.00 to 7.00
COc1cc(Nc2nc(NC3CN(C(=O)OCc4ccccc4)CCC3N)c(F)cc2C(N)=O)ccn1 [Example 006-529, (3R,4S)-benzyl 4-amino-3-((5-carbamoyl-3-fluoro-6-((2-methoxypyridin-4-yl)amino)pyridin-2-yl)amino)piperidine-1-carboxylate) and (3S,4R)-benzyl-4-amino-3-((5-carbamoyl-3-fluoro-6-((2-methoxypyridin-4-yl)amino)pyridin-2-yl)amino)piperidine-1-carboxylate(=1:1)]	6.00 to 7.00
CCNc1nc(Nc2ccc3cn[nH]c3c2)c(C(N)=O)cc1F [Example 006-018, 6-(ethylamino)-5-fluoro-2-((1H-indazol-6-yl)amino)nicotinamide]	7.00 to 7.30
Cn1cc2cccc(Nc3nc(N[C@@H]4CCCC[C@@H]4N)c(F)cc3C(N)=O)c2n1 (relative stereo) [Example 006-074, 6-(cis-2-aminocyclohexylamino)-5-fluoro-2-((2-methyl-2H-indazol-7-yl)amino)nicotinamide]	6.00 to 7.00
NC(=O)c1cc(F)c(N[C@@H]2CCCC[C@@H]2N)nc1Nc1cncc(-c2cccc(Cl)c2)c1 (relative stereo) [Example 004-147, 6-(cis-2-aminocyclohexylamino)-2-((5-(3-chlorophenyl)pyridin-3-yl)amino)-5-fluoronicotinamide]	> 8.00
NC(=O)c1cc(F)c(N[C@@H]2CCCC[C@@H]2N)nc1Nc1ccn2ccnc2c1 (relative stereo) [Example 004-131, 6-(cis-2-aminocyclohexylamino)-5-fluoro-2-((imidazo[1,2-a]pyridin-7-yl)amino)-nicotinamide]	7.30 to 8.00
COCCn1ncc2cc(Nc3nc(N[C@H](C)[C@H](C)N)c(F)cc3C(N)=O)ccc21 (racemic) [Example 006-197, 6-(((2R,3S)-3-aminobutan-2-yl)amino)-5-fluoro-2-((1-(2-methoxyethyl)-1H-indazol-5-yl)amino)nicotinamide 6-(((2S,3R)-3-aminobutan-2-yl)amino)-5-fluoro-2-((1-(2-methoxyethyl)-1H-indazol-5-yl)amino)nicotinamide]	7.30 to 8.00
COC(C)CCOc1ccc2cc(Nc3nc(NC4CCCCC4N)c(F)cc3C(N)=O)ccc2n1 (stereo not drawn) [Example 002-099]	> 8.00
NC(=O)c1cc(F)c(NC2CCCCC2N)nc1Nc1cccc2c1cnn2CCN1CCOCC1 (stereo not drawn) [Example 002-027]	> 8.00
NC(=O)c1cc(F)c(NC2CCCCC2N)nc1Nc1cncc(NC(=O)c2ccc(Cl)cc2)c1 (stereo not drawn) [Example 027-009]	7.30 to 8.00
CCCCOCCOCCOc1ccc2cc(Nc3nc(NC4CCCCC4N)c(F)cc3C(N)=O)ccc2n1 (stereo not drawn) [Example 002-111]	7.30 to 8.00
CCOCCOCCn1cc2c(Nc3nc(NC4CCCCC4N)c(F)cc3C(N)=O)cccc2n1 (stereo not drawn) [Example 002-035]	7.30 to 8.00
COc1cc(Nc2nc(NC(C)(C)C(N)=O)c(F)cc2C(N)=O)cc(OC)c1 [Example 033-002]	6.00 to 7.00
NC(=O)c1cc(F)c(NC2CCCCC2N)nc1Nc1ccnc(-c2ccc3cccnc3c2)c1 (stereo not drawn) [Example 002-192]	> 8.00
NC(=O)c1cc(F)c(NC(Cc2ccccc2)C(N)=O)nc1Nc1ccc2ncsc2c1 (stereo not drawn) [Example 012-006]	7.30 to 8.00
CC1CN(c2ccc(Nc3nc(NC4CCCCC4N)c(F)cc3C(N)=O)cn2)CC(C)O1 (stereo not drawn) [Example 002-127]	7.30 to 8.00
COCCOc1ccc(-c2cncc(Nc3nc(N[C@@H]4CCCC[C@@H]4N)c(F)cc3C(N)=O)c2)cc1 (relative stereo) [Example 004-111, 6-(cis-2-aminocyclohexylamino)-5-fluoro-2-((5-(4-(2-methoxyethoxy)phenyl)pyridin-3-yl)-amino)nicotinamide]	> 8.00
C[C@@H]1CN(c2cncc(Nc3nc(N[C@@H]4CCCC[C@@H]4N)c(F)cc3C(N)=O)c2)C[C@H](C)O1 [Example 004-180]	7.30 to 8.00
COc1ncc(Nc2nc(NC3CCCCC3N)c(F)cc2C(N)=O)cc1-c1ccccc1F (stereo not drawn) [Example 002-149]	7.30 to 8.00
COc1ncc(Nc2nc(NC3CCCCC3N)c(F)cc2C(N)=O)cc1C (stereo not drawn) [Example 002-152]	7.30 to 8.00
COc1cc(Nc2nc(N[C@H](CC3CC3)[C@H](C)N)c(F)cc2C(N)=O)cc(OC)n1 [Example 006-349, 6-(((2R,3S)-3-amino-1-cyclopropylbutan-2-yl)amino)-2-((2,6-dimethoxypyridin-4-yl)amino)-5-fluoronicotinamide]	> 8.00
COc1ncc(Nc2nc(NC3CCCCC3N)c(F)cc2C(N)=O)cc1-c1ccoc1 (stereo not drawn) [Example 002-151]	7.30 to 8.00
C[C@H](N)[C@@H](CC1CC1)Nc1nc(Nc2ccc3c(F)nn(C4CC4)c3c2)c(C(N)=O)cc1F [Example 006-481, 6-(((2R,3S)-3-amino-1-cyclopropylbutan-2-yl)amino)-2-((1-cyclopropyl-3-fluoro-1H-indazol-6-yl)amino)-5-fluoronicotinamide]	6.00 to 7.00
CC(=O)N(C)c1cccc2cc(Nc3nc(N[C@@H]4CCCC[C@@H]4N)c(F)cc3C(N)=O)cnc12 [Example 004-034]	7.00 to 7.30
Cc1ccc(-c2cncc(Nc3nc(N[C@@H]4CCCC[C@@H]4N)c(F)cc3C(N)=O)c2)cc1 (relative stereo) [Example 004-100, 6-(cis-2-aminocyclohexylamino)-5-fluoro-2-((5-(4-methylphenyl)pyridin-3-yl)amino)-nicotinamide]	> 8.00
NC(=O)c1cc(F)c(N[C@@H]2CCCC[C@@H]2N)nc1Nc1cncc(NC(=O)c2ccno2)c1 (relative stereo) [Example 027-036, N-(5-(6-(cis-2-aminocyclohexylamino)-3-carbamoyl-5-fluoropyridin-2-yl)aminopyridin-3-yl)isoxazole-5-carboxamide]	> 8.00
NC(=O)c1cc(F)c(NC2CCCCC2N)nc1Nc1ccnc(-c2cccc(Cl)c2F)c1 (stereo not drawn) [Example 002-146]	> 8.00
CC(C)C(Nc1nc(Nc2ccc3ncccc3c2)c(C(N)=O)cc1F)[C@H](C)N (stereo partly drawn) [Example 006-158, 6-(((2S)-2-amino-4-methylpentan-3-yl)amino)-5-fluoro-2-(quinolin-6-ylamino)nicotinamide]	7.30 to 8.00
NC(=O)c1cc(F)c(N[C@@H]2CCCC[C@@H]2N)nc1Nc1cncc(-c2ccccc2Cl)c1 (relative stereo) [Example 004-146, 6-(cis-2-aminocyclohexylamino)-2-((5-(2-chlorophenyl)pyridin-3-yl)amino)-5-fluoronicotinamide]	> 8.00
NCCNCCNc1nc(Nc2ccnc(-n3cncn3)c2)c(C(N)=O)cc1F [Example 002-130]	6.00 to 7.00

Same assay, conditions: read-out: Syk-inhibitory activity (IC50)

SMILES	pIC50
COc1cc(Nc2nc(N3CC[C@@H](N)C3)c(F)cc2C(N)=O)cc(OC)c1 [Example 17, 6-((3R)-3-aminopyrrolidin-1-yl)-2-(3,5-dimethoxyphenylamino)-5-fluoronicotinamide]	≥ 6.00
Cc1nc2ccc(Nc3nc(NCCN)c(F)cc3C(N)=O)cc2o1 [Example 6-23, 6-((2-aminoethyl)amino)-5-fluoro-2-((2-methylbenzo[d]oxazol-6-yl)amino)nicotinamide]	≥ 6.00
Cc1cc(C)cc(Nc2nc(NCCN)c(F)cc2C(N)=O)c1 [Example 8-2, 6-((2-aminoethyl)amino)-2-((3,5-dimethylphenyl)amino)-5-fluoro-nicotinamide]	≥ 6.00
